# Assay results as given in article PMC11864979, “First-in-class ultralong-target-residence-time p38α inhibitors as a mitosis-targeted therapy for colorectal cancer” (Nature Cancer, 2025).
# Read-outs that look alike come from different tables or passages of the source.
# Columns and labels:
# Assay in all cases: selectivity profiling in a panel of 340 wild-type kinases (Reaction Biology Europe)
# Format in all cases: binding
# 340 wild-type kinases [1] = biological target: T1, 340 wild-type kinases (Homo sapiens, UniProt O75582)
# T1 construct: purchased Reaction Biology Europe
# T1 sequence (O75582 whole entry): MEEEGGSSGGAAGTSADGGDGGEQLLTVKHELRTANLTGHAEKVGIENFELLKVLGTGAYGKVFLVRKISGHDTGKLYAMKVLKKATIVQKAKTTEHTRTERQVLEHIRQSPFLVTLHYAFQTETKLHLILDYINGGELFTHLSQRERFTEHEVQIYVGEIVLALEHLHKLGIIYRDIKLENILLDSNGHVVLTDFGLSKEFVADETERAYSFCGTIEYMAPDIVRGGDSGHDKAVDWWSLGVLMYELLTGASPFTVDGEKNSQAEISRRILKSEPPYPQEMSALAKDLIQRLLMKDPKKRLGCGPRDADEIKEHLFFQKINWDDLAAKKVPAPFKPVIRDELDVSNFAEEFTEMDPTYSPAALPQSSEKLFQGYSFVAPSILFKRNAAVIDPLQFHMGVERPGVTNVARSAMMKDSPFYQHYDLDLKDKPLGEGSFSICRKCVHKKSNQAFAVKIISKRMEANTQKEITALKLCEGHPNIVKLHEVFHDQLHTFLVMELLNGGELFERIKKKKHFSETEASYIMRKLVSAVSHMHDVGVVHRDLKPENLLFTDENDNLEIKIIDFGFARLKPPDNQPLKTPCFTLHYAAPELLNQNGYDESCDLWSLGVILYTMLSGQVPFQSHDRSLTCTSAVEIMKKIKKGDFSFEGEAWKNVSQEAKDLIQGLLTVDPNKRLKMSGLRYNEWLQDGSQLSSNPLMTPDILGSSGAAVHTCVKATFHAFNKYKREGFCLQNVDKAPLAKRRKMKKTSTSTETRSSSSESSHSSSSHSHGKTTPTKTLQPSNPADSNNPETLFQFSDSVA
# 340 wild-type kinases [2] = biological target: T2, 340 wild-type kinases (Homo sapiens, UniProt Q99640)
# T2 construct: purchased Reaction Biology Europe
# T2 sequence (Q99640 1-499): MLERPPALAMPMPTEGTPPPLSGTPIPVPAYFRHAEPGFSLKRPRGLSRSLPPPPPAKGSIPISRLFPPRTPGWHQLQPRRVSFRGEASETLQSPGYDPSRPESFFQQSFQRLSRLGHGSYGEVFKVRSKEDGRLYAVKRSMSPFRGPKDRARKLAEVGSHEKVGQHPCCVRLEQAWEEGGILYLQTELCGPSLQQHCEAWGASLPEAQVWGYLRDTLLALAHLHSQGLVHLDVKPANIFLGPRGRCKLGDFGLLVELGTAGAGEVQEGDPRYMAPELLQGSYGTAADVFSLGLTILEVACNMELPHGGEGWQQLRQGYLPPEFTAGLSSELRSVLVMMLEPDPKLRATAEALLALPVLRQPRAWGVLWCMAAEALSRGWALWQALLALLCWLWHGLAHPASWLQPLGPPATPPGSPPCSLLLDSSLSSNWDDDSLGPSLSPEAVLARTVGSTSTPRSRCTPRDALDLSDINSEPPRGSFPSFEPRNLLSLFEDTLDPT
# 340 wild-type kinases [3] = biological target: T3, 340 wild-type kinases (Homo sapiens, UniProt P29376)
# T3 construct: purchased Reaction Biology Europe
# T3 sequence (P29376 17-864): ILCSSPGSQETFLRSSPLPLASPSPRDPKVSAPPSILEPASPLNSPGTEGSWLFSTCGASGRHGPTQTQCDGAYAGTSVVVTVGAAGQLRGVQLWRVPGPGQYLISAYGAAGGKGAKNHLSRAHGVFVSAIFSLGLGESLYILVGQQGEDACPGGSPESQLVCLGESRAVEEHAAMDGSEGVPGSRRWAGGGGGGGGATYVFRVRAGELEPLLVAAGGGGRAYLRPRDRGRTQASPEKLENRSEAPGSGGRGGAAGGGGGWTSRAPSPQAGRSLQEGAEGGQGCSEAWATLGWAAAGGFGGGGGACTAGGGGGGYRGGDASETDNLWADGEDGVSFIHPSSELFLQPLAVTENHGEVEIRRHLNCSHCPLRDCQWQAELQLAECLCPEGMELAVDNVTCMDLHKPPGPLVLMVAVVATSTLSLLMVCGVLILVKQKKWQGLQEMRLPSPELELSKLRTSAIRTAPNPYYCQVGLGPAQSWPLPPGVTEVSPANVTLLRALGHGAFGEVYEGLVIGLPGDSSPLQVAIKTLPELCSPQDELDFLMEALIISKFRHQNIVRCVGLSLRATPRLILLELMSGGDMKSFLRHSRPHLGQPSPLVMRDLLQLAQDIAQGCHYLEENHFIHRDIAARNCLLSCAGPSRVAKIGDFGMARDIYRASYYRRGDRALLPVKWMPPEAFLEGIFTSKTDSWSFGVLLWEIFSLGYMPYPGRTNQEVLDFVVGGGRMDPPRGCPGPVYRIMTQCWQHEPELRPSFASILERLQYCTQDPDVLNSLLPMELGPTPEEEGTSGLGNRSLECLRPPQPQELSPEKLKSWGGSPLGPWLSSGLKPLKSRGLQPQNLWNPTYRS
# 340 wild-type kinases [4] = biological target: T4, 340 wild-type kinases (Homo sapiens, UniProt Q16832)
# T4 construct: purchased Reaction Biology Europe
# T4 sequence (Q16832 22-855): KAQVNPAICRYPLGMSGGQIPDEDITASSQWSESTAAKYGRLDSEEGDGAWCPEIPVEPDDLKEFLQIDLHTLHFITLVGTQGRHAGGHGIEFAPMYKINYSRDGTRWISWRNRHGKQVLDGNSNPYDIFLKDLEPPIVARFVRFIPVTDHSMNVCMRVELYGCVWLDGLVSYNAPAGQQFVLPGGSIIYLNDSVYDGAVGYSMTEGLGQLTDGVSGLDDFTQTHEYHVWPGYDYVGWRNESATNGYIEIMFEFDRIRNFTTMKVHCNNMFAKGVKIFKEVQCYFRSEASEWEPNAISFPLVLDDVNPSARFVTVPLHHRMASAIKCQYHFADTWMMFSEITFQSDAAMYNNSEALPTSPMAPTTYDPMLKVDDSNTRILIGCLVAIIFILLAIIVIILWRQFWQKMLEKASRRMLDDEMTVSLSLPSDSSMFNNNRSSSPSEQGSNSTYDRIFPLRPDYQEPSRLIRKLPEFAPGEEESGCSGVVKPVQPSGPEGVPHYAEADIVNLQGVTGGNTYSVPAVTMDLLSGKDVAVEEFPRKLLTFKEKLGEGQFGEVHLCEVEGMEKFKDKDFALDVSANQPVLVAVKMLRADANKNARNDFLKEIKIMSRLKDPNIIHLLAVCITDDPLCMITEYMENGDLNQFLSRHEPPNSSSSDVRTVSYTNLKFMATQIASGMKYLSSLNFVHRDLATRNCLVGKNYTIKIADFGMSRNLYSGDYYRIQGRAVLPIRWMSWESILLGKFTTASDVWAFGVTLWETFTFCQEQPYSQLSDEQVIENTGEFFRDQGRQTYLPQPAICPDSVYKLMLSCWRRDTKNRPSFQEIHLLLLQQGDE
# 340 wild-type kinases [5] = biological target: T5, 340 wild-type kinases (Homo sapiens, UniProt P53779)
# T5 construct: purchased Reaction Biology Europe
# T5 sequence (P53779 whole entry): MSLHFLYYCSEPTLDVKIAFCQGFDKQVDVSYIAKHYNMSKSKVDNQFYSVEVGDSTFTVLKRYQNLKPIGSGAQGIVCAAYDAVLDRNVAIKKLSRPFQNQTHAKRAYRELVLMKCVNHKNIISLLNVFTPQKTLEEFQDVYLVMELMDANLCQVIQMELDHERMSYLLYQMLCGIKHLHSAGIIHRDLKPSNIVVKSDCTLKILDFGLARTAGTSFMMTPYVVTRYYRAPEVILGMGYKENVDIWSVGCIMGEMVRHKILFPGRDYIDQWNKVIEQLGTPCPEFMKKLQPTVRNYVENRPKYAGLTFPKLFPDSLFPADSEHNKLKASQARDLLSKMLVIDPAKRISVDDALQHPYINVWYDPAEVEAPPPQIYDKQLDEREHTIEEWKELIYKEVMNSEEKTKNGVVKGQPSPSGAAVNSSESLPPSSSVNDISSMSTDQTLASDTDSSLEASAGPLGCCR
# 340 wild-type kinases [6] = biological target: T6, 340 wild-type kinases (Homo sapiens, UniProt Q04912)
# T6 construct: purchased Reaction Biology Europe
# T6 sequence (Q04912 25-1400): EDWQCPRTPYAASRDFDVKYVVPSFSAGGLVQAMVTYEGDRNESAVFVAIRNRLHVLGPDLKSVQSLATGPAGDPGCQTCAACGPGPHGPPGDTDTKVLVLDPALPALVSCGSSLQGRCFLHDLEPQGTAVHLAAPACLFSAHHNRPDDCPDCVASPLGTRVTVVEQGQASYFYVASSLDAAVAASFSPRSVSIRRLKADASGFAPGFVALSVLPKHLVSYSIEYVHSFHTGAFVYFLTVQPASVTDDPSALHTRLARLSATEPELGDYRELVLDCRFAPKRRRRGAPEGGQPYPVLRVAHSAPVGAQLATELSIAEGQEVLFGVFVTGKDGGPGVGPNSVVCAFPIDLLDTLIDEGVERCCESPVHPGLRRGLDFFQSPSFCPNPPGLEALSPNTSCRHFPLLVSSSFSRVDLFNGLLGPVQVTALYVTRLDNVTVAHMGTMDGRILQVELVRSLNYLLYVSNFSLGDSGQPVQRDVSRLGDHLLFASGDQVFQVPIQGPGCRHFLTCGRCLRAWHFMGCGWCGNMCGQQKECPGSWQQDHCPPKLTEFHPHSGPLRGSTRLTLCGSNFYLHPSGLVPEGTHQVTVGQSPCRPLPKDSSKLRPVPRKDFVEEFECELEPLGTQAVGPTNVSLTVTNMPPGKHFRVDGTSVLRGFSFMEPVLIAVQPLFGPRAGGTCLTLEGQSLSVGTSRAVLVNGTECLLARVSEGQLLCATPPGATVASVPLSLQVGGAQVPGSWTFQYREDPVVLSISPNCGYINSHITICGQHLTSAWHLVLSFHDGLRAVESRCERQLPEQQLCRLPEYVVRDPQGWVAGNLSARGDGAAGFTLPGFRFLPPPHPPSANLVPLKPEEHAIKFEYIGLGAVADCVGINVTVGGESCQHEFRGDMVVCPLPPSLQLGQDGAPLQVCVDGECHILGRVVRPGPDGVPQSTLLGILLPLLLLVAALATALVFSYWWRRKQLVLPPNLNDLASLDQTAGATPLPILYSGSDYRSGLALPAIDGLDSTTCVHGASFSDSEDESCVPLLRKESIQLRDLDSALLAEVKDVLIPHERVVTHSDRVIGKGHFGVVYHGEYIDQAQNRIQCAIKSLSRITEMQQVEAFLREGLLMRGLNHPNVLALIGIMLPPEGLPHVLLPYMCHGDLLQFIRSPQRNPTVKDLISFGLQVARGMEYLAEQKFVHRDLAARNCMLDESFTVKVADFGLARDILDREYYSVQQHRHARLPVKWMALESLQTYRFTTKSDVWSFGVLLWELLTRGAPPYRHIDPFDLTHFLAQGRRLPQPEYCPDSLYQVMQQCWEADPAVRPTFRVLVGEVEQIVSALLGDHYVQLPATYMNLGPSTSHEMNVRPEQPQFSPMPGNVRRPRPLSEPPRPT
# 340 wild-type kinases [7] = biological target: T7, 340 wild-type kinases (Homo sapiens, UniProt O94806)
# T7 construct: purchased Reaction Biology Europe
# T7 sequence (O94806 1-890): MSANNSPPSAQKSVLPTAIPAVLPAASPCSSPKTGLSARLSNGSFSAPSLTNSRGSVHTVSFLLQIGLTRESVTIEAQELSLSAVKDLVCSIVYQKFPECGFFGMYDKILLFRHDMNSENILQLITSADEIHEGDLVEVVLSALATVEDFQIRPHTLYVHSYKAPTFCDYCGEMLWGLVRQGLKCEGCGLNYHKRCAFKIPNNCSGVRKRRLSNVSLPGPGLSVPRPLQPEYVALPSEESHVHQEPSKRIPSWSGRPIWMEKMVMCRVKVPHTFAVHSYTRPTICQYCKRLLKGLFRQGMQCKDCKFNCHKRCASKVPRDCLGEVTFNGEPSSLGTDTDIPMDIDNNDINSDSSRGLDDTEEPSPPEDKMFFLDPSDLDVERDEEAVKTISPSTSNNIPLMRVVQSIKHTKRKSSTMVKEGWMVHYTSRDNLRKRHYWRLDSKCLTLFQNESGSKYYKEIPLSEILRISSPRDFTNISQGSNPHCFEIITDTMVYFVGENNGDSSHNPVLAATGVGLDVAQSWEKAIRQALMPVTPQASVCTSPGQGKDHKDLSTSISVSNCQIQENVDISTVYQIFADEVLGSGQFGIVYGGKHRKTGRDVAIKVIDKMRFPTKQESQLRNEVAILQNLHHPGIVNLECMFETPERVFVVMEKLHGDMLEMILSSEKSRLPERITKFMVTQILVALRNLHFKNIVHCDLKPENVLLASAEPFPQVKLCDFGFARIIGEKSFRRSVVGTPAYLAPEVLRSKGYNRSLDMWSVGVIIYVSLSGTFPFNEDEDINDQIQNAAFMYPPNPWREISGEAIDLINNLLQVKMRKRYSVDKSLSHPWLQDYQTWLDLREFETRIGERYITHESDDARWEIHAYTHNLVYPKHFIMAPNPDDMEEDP
smiles,measurement,setting,value
CNC(=O)c1ccc2c(c1)C(=O)c1ccc(Nc3ccc(F)c(NC(=O)C4CC4)c3)cc1CC2 [Compound 2015],remaining activity at 0.2 µM,"340 wild-type kinases [1]; 0.2 µM 2015, read-out: RPS6KA5 residual activity",93.6%
same,remaining activity at 0.2 µM,"340 wild-type kinases [1]; RPS6KA5, 0.2 µM, read-out: residual activity",93.6%
same,remaining activity at 1 µM,"340 wild-type kinases [1]; RPS6KA5, 1 µM, read-out: residual activity",90.2%
same,remaining activity at 0.2 µM,"340 wild-type kinases [2]; 0.2 µM 2015, read-out: PKMYT1 residual activity",98.1%
same,remaining activity at 1 µM,"340 wild-type kinases [2]; 1 µM 2015, read-out: PKMYT1 residual activity",102%
same,remaining activity at 0.2 µM,"340 wild-type kinases [2]; PKMYT1, 0.2 µM, read-out: residual activity",98%
same,remaining activity at 1 µM,"340 wild-type kinases [2]; PKMYT1, 1 µM, read-out: residual activity",102%
same,remaining activity at 0.2 µM,"340 wild-type kinases [3]; 0.2 µM 2015, read-out: LTK residual activity",100%
same,remaining activity at 1 µM,"340 wild-type kinases [3]; 1 µM 2015, read-out: LTK residual activity",99.3%
same,remaining activity at 0.2 µM,"340 wild-type kinases [3]; LTK, 0.2 µM, read-out: residual activity",100%
same,remaining activity at 1 µM,"340 wild-type kinases [3]; LTK, 1 µM, read-out: residual activity",99.3%
same,remaining activity at 0.2 µM,"340 wild-type kinases [4]; 0.2 µM 2015, read-out: DDR2 residual activity",106%
same,remaining activity at 1 µM,"340 wild-type kinases [4]; 1 µM 2015, read-out: DDR2 residual activity",98.8%
same,remaining activity at 0.2 µM,"340 wild-type kinases [4]; DDR2, 0.2 µM, read-out: residual activity",106%
same,remaining activity at 1 µM,"340 wild-type kinases [4]; DDR2, 1 µM, read-out: residual activity",98.8%
same,remaining activity at 0.2 µM,"340 wild-type kinases [5]; 0.2 µM 2015, read-out: JNK3 residual activity",90.9%
same,remaining activity at 1 µM,"340 wild-type kinases [5]; 1 µM 2015, read-out: JNK3 residual activity",100%
same,remaining activity at 0.2 µM,"340 wild-type kinases [5]; JNK3, 0.2 µM, read-out: residual activity",90.9%
same,remaining activity at 1 µM,"340 wild-type kinases [5]; JNK3, 1 µM, read-out: residual activity",100%
same,remaining activity at 0.2 µM,"340 wild-type kinases [6]; 0.2 µM 2015, read-out: RON residual activity",97%
same,remaining activity at 1 µM,"340 wild-type kinases [6]; 1 µM 2015, read-out: RON residual activity",101%
same,remaining activity at 0.2 µM,"340 wild-type kinases [6]; RON, 0.2 µM, read-out: residual activity",97%
same,remaining activity at 1 µM,"340 wild-type kinases [6]; RON, 1 µM, read-out: residual activity",101%
same,remaining activity at 0.2 µM,"340 wild-type kinases [7]; 0.2 µM 2015, read-out: PKCnu residual activity",88.9%
same,remaining activity at 1 µM,"340 wild-type kinases [7]; 1 µM 2015, read-out: PKCnu residual activity",96.9%
same,remaining activity at 0.2 µM,"340 wild-type kinases [7]; PKCnu, 0.2 µM, read-out: residual activity",88.9%
same,remaining activity at 1 µM,"340 wild-type kinases [7]; PKCnu, 1 µM, read-out: residual activity",96.9%
